Literature values as cited in PMC3057427 (ACS combinatorial science, 2011).

SMILES: COc1cc(NC(=O)c2ccccn2)ccc1Cl [Compound 6]
- efficacy in anti-Parkinsonian animal models: display efficacy

SMILES: O=C(Nc1cc(Cl)cc(Cl)c1)[C@H]1CCCC[C@H]1C(=O)O [Compound 2]
- efficacy in anti-Parkinsonian animal models: display efficacy
